The results in this text go back to US5705491A, “Adenosine deaminase inhibitor” (Nippon Zoki Pharmaceutical Co., Ltd., priority 1992, dated 1998).

SMILES strings stand for the structures.

One experiment addresses T1, adenosine deaminase of type VII (mucous membrane of intestinal tract of calf) (Bos taurus, UniProt P56658).
T1 construct: from tissue; host or cells: mucous membrane of intestinal tract of calf
T1 sequence (P56658 1-363): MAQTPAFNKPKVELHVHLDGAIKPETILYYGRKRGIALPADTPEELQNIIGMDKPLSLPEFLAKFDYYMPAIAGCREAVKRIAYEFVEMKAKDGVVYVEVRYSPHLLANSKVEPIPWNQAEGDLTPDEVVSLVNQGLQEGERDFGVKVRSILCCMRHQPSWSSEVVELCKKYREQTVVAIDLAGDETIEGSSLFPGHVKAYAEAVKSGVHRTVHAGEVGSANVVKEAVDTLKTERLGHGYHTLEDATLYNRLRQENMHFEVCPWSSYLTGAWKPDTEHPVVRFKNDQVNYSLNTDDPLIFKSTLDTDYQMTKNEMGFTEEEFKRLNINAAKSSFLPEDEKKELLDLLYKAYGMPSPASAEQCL
Briefly: Adenosine deaminase inhibiting action. Type of experiment: biochemical. The note with it: 25° C., 0.05M phosphate buffer pH 7.5, adenosine substrate, 5 minutes, Lineweaver-Burk plots. Here is the method: 1. Adenosine Deaminase Inhibiting Action
The enzymatic reaction was conducted at 25° C. in a 0.05M phosphate buffer (pH=7.5). Thus, a reaction solution comprising 800 μl of substrate solution (adenosine), 100 μl of a solution to be tested and 100 μl of enzyme solution (adenosine deaminase of type VII; mucous membrane of intestinal tract of calf) was reacted for 5 minutes and the reaction was stopped by adding 100 μl of acetic acid. Then the amount of inosine produced was determined by means of an HPLC to measure the inhibiting activity. The test was conducted for various substrate concentrations and Ki values were measured by Lineweaver-Burk plots.
In turn, `CO[C@@H]1[C@H](O)[C@@H](CO)O[C@H]1n1cnc2c(N)ncnc21` [Compound 1, 2'-O-Methyladenosine] came in with a Ki of 13.1 µM.
Same read-out and setting: for `CO[C@H]1[C@@H](O)[C@H](n2cnc3c(N)ncnc32)O[C@@H]1CO` [Compound 2, 3'-O-Methyladenosine] the value was 493 µM.
As to `CCCCO[C@@H]1[C@H](O)[C@@H](CO)O[C@H]1n1cnc2c(N)ncnc21` [Compound 4, 2'-O-n-Butyladenosine], the inhibitory constant (Ki) is 3.47 µM.
The same measure, in the same setting: with `CO[C@@H]1[C@H](O)[C@@H](CO)O[C@H]1n1cnc2c(N)nc(C)nc21` [Compound 5, 2,2'-O-Dimethyl adenosine] the figure was 24.6 µM.
`CO[C@H]1[C@@H](O)[C@H](n2cnc3c(N)nc(C)nc32)O[C@@H]1CO` [Compound 6, 2,3'-O-Dimethyl adenosine] displayed an inhibitory constant (Ki) of 179 µM.
For the molecule `CNc1ncnc2c1ncn2[C@@H]1O[C@H](CO)[C@@H](O)[C@H]1OC` [Compound 18, N^6,2'-O-Dimethiladenosine], the inhibition constant Ki is 1.24 µM. This Ki lies about 140-fold lower than the previous one.
On the same count and under the same terms, with `CCNc1ncnc2c1ncn2[C@@H]1O[C@H](CO)[C@@H](O)[C@H]1OC` [Compound 19, N^6 -Ethyl-2'-O-methyladenosine] the figure was 77.8 µM; with `CCCCNc1ncnc2c1ncn2[C@@H]1O[C@H](CO)[C@@H](O)[C@H]1OC` [Compound 20, N^6-n-Butyl-2'-O-methyladenosine], 269 µM.
Same read-out and setting: for `CCO[C@@H]1[C@H](O)[C@@H](CO)O[C@H]1n1cnc2c(NC)ncnc21` [Compound 21, N^6 -Methyl-2'-O-ethyladenosine] the value was 0.33 µM; for `CCCCO[C@@H]1[C@H](O)[C@@H](CO)O[C@H]1n1cnc2c(NC)ncnc21` [Compound 22, N^6 -Methyl-2'-O-n-butyladenosine], 0.0558 µM.
The molecule `CCCCCCO[C@@H]1[C@H](O)[C@@H](CO)O[C@H]1n1cnc2c(NC)ncnc21` [Compound 23, N^6 -Methyl-2'-O-n-hexyladenosine] showed an inhibition constant (Ki) of 0.89 µM.
The same measure, in the same setting: for `CCCCCCCCO[C@@H]1[C@H](O)[C@@H](CO)O[C@H]1n1cnc2c(NC)ncnc21` [Compound 24, N^6 -Methyl-2'-O-n-octyladenosine] the value was 0.11 µM; for `CNc1ncnc2c1ncn2[C@@H]1O[C@H](COC)[C@@H](O)[C@H]1O` [Compound 25, N^6, 5'-O-Dimethyladenosine], 359 µM.
`CCCCCCc1nc(NC)c2ncn([C@@H]3O[C@H](CO)[C@@H](O)[C@H]3OC)c2n1` [Compound 30, N^6,2'-O-Dimethyl-2-hexyladenosine] showed an inhibition constant Ki of 0.09 µM.
Same read-out and setting: for `CCCCCCCCCCc1nc(NC)c2ncn([C@@H]3O[C@H](CO)[C@@H](O)[C@H]3OC)c2n1` [Compound 31, N^6,2'-O-Dimethyl-2-decyladenosine] the value was 0.28 µM.
Consider `CCCCC#Cc1nc(NC)c2ncn([C@@H]3O[C@H](CO)[C@@H](O)[C@H]3OC)c2n1` [Compound 32, N^6,2'-O-Dimethyl-2-(1-hexyn-1-yl)-adenosine], for which the Ki was 0.12 µM.
`CCCCCCCCCCC#Cc1nc(NC)c2ncn([C@@H]3O[C@H](CO)[C@@H](O)[C@H]3OC)c2n1` [Compound 33, N^6,2'-O-Dimethyl-2-(1-dodecyn-1-yl)-adenosine] showed a Ki of 15 µM.
The same measure, in the same setting: for `CNc1nc(C)nc2c1ncn2[C@@H]1O[C@H](COC)[C@@H](O)[C@H]1O` [Compound 34, 2,N^6,5'-O-Trimethyladenosine] the value was 359 µM; for `CO[C@@H]1[C@H](O)[C@@H](CO)O[C@H]1n1cnc2c(N)nc(-c3ccccc3)nc21` [Compound 37, 2-Phenyl-2'-O-methyladenosine], 0.66 µM.
Same read-out and setting: with `CO[C@H]1[C@@H](O)[C@H](n2cnc3c(N)nc(-c4ccccc4)nc32)O[C@@H]1CO` [Compound 38, 2-Phenyl-3'-O-methyladenosine] the figure was 7.9 µM; with `CO[C@@H]1[C@H](O)[C@@H](CO)O[C@H]1n1cnc2c(N)nc(O)nc21` [Compound 39, 2-Hydroxy-2'-O-methyladenosine], 19 µM; with `CO[C@@H]1[C@H](O)[C@@H](CO)O[C@H]1n1cnc2c(N)nc(Br)nc21` [Compound 43, 2-Bromo-2'-O-methyladenosine], 3.2 µM.
`CO[C@H]1[C@@H](O)[C@H](n2cnc3c(N)nc(Br)nc32)O[C@@H]1CO` [Compound 44, 2-Bromo-3'-O-methyladeonsine] yielded a Ki of 22 µM.
On the same count and under the same terms, with `CNc1nc(Br)nc2c1ncn2[C@@H]1O[C@H](CO)[C@@H](O)[C@H]1OC` [Compound 45, 2-Bromo-N^6,2'-O-dimethyladenosine] the figure was 0.12 µM; with `CNc1nc(Br)nc2c1ncn2[C@@H]1O[C@H](CO)[C@@H](OC)[C@H]1O` [Compound 46, 2-Bromo-N^6,3'-O-dimethyladeonsine], 3.7 µM.
With `CO[C@@H]1[C@H](O)[C@@H](CO)O[C@H]1n1cnc2c(N)nc(I)nc21` [Compound 47, 2-Iodo-2'-O-methyladenosine], the Ki was 0.23 µM.
On the same count and under the same terms, for `CO[C@H]1[C@@H](O)[C@H](n2cnc3c(N)nc(I)nc32)O[C@@H]1CO` [Compound 48, 2-Iodo-3'-O-methyladeonsine] the value was 4.4 µM; for `CO[C@@H]1[C@H](O)[C@@H](CO)O[C@H]1n1cnc2c(N)nc(N)nc21` [Compound 50, 2-Amino-2'-O-methyladenosine], 28 µM.
Regarding `CO[C@H]1[C@@H](O)[C@H](n2cnc3c(N)nc(N)nc32)O[C@@H]1CO` [Compound 51, 2-Amino-3'-O-methyladenosine], the inhibition constant (Ki) is 5 µM. This Ki lies about 5.6-fold lower than the previous one.
On the same count and under the same terms, for `CCCCCNc1nc(N)c2ncn([C@@H]3O[C@H](CO)[C@@H](O)[C@H]3OC)c2n1` [Compound 52, 2-Pentylamino-2'-O-methyladenosine] the value was 0.6 µM; for `CO[C@@H]1[C@H](O)[C@@H](CO)O[C@H]1n1cnc2c(N)nc(Nc3ccccc3)nc21` [Compound 53, 2-Phenylamino-2'-O-methyladenosine], 0.17 µM.
On the same count and under the same terms, with `CO[C@H]1[C@@H](O)[C@H](n2cnc3c(N)nc(Nc4ccccc4)nc32)O[C@@H]1CO` [Compound 54, 2-Phenylamino-3'-O-methyladenosine] the figure was 2.2 µM; with `CNc1nc(Nc2ccccc2)nc2c1ncn2[C@@H]1O[C@H](CO)[C@@H](O)[C@H]1OC` [Compound 55, 2-Phenylamino-N^6,2'-O-dimethyladenosine], 0.013 µM; with `CNc1nc(Nc2ccccc2)nc2c1ncn2[C@@H]1O[C@H](CO)[C@@H](OC)[C@H]1O` [Compound 56, 2-Phenylamino-N^6,3'-O-dimethyladenosine], 0.11 µM.
On the same count and under the same terms, with `CO[C@@H]1[C@H](O)[C@@H](CO)O[C@H]1n1cnc2c(N)nc(C#CCO)nc21` [Compound 57, 2-(3-Hydroxy-1-propyn-1-yl)-2'-O-methyladenosine] the figure was 30 µM.
Molecule `CO[C@@H]1[C@H](OC)[C@@H](CO)O[C@H]1n1cnc2c(N)ncnc21` [Compound 59, 2',3'-O-Dimethyladenosine] displayed a Ki of 7.5 µM.
Still for that read-out and setting: with `CNc1ncnc2c1ncn2[C@@H]1O[C@H](CO)[C@@H](OC)[C@H]1OC` [Compound 60, N^6,2',3'-O-Trimethyladenosine] the figure was 0.75 µM; with `CCO[C@@H]1[C@H](OCC)[C@@H](CO)O[C@H]1n1cnc2c(NC)ncnc21` [Compound 61, N^6 -Methyl-2',3'-O-diethyladenosine], 0.15 µM.
The same measure, in the same setting: for `CO[C@@H]1[C@H](OC)[C@@H](CO)O[C@H]1n1cnc2c(N)nc(C)nc21` [Compound 63, 2,2',3'-O-Trimethyladenosine] the value was 1.3 µM.
Still for that read-out and setting: for `CNc1nc(C)nc2c1ncn2[C@@H]1O[C@H](CO)[C@@H](OC)[C@H]1OC` [Compound 64, 2,N^6,2',3'-O-Tetramethyladenosine] the value was 0.88 µM; for `CO[C@@H]1[C@H](O)[C@@H](CO)O[C@H]1n1cnc2c(NC3CCCCC3)ncnc21` [Compound 73, N^6 -Cyclohexyl-2'-O-methyladenosine], 1030 µM.

The subject of another experiment is ischemic edema of hind paw of mice. Briefly: Suppressive action against ischemic edema. Type of experiment: in vivo, ICR-strain male mice. The note with it: 10 mg/kg intravenous before ischemia; treated paw. Here is the method:
4. Suppressive Action against Ischemic Edema
The right hind paw of ICR-strain male mice (11 weeks of age) were fastened with a rubber band to stop the blood stream for 20 minutes, and then the rubber band was removed to recover the blood stream. The tested drug was administered intravenously before the treatment. Each of the right and left hind paws were weighed and the suppressive action was measured according to the weight difference between the treated and untreated paws.
For `Oc1ncnc2[nH]ncc12` [Allopurinol], the “Paw Weight, Treated” value amounted to 283.2 ± 6.3 mg.

Staying with this experiment, now noted: 10 mg/kg intravenous before ischemia; untreated paw.
For the molecule `Oc1ncnc2[nH]ncc12` [Allopurinol], the “Paw Weight, Untreated” value is 222.9 ± 6.9 mg.

The same experiment, now with this note: 10 mg/kg intravenous; from weight difference between treated and untreated paws.
For `Oc1ncnc2[nH]ncc12` [Allopurinol], the “Inhibition (of ischemic edema)” value amounted to 36.4%.
